The values below are quoted from earlier work in patent publication US20070149500A1, “Compounds, compositions, and methods” (priority 2003, published 2007).

SMILES strings stand for the structures.

The subject of the series is A549 cells. Particulars: data provided by National Cancer Institute.
Take `O=c1[nH]cc(F)c(=O)[nH]1` [5-fluorouracil]: the GI50 (in general, the concentration at which growth is held to half of that of the control) was 1000 nM.

For the compound `NC(=O)NO` [hydroxyurea], the GI50 is 500000 nM.

Take `CC(=O)O[C@H]1C(=O)[C@@]2(C)[C@H]([C@H](OC(=O)c3ccccc3)[C@]3(O)C[C@H](OC(=O)[C@H](O)[C@@H](NC(=O)c4ccccc4)c4ccccc4)C(C)=C1C3(C)C)[C@]1(OC(C)=O)CO[C@@H]1C[C@@H]2O` [paclitaxel]: the GI50 was 4 nM.
